Experimental data taken from ChEMBL document CHEMBL1126693, “Long-chain-substituted uric acid and 5,6-diaminouracil derivatives as novel agents against free radical processes: synthesis and in vitro activity” (J Med Chem, 1993).
The source made the active and inactive calls. The rule behind the calls is not given here.

Assays:
[1] = Inhibition time for 20 uM during peroxidation of liposomal suspension of dilinoleoylphosphatidylcholine (DPLC) indicated by DMVN at 40 degree Centigrade
[2] = species on record: Bos taurus; assay: Tested for antioxidant activity using bovine heart mitochondria and iron(II) / dihydroxy fumaric acid (DHF); type: functional
[3] = Reducing activity to scavenge 10 uM 1, 1-diphenylpicrylhydrazyl (DPPH); type: functional
[4] = Inhibition time for 20 uM during peroxidation of methyl linoleate / DMVN in TBA /methanol medium at 40 degree Centigrade
[5] = Partition coefficient (logP); type: physicochemical; settings: octanol/water
[6] = species on record: Bos taurus; assay: Antioxidant activity in bovine heart mitochondria using iron(II) / dihydroxy fumaric acid (DHF); type: functional
[7] = species on record: Bos taurus; assay: Tested for antioxidant activity using bovine heart mitochondria and iron(II) / dihydroxy fumaric acid (DHF) at 100 uM; type: functional
[8] = Reducing activity to scavenge 10 uM 1, 1-diphenylpicrylhydrazyl (DPPH); inactive; type: functional
[9] = Inhibition time for 20 uM during peroxidation of methyl linoleate / DMVN in TBA /methanol medium at 40 degree centigrade; inactive
[10] = Inhibition time for 20 uM during peroxidation of liposomal suspension of dilinoleoylphosphatidylcholine (DPLC) indicated by DMVN at 40 degree centigrade; inactive
[11] = Percent inhibition at 100 uM against peroxidation of methyl linoleate / DMVN in TBA /methanol medium at 40 degree Centigrade
[12] = Percent inhibition at 100 uM against peroxidation of liposomal suspension of dilinoleoylphosphatidylcholine (DPLC) indicated by DMVN at 40 degree Centigrade
[13] = Inhibition against peroxidation of liposomal suspension of dilinoleoylphosphatidylcholine (DPLC) indicated by DMVN at 40 degree Centigrade

SMILES | T inh [4] [s] | IC50 [6] [nM] | T inh [1] [s] | RC10 [3] [µM] | inhibition [7] [%] | other results
CCCCCCn1c(N)c(N)c(=O)[nH]c1=O | 105 |  | 2010 | 6.5 |  | IC50 [2]: 3500 nM; logP [5]: 1.01
Cn1c(N)c(N)c(=O)[nH]c1=O | 156 | 82000 | 800 | 4.5 |  | logP [5]: -1.4
CCCCCCn1c(=O)[nH]c(=O)c2[nH]c(O)nc21 |  |  |  | 4.5 | 26 | logP [5]: -0.02
O=c1[nH]c(=O)c2[nH]c(=O)[nH]c2[nH]1 [URIC ACID] |  |  |  |  |  | logP [5]: -2.91
CCCCCCCCCCCCNc1cc(O)nc(O)n1 |  |  |  |  | 2 | RC10 [8]: inactive; T inh [9]: inactive; T inh [10]: inactive
Cn1c(=O)[nH]c(=O)c2c1[nH]c(=O)n2C |  |  |  |  | 5 | RC10 [8]: inactive
Cn1c(=O)[nH]c2[nH]c(=O)[nH]c2c1=O |  |  |  | 4.5 | 10 | inhibition [11]: 13%
CCCCCCCCCCCCn1c(=O)n(C)c(=O)c2c1n(C)c(=O)n2C |  |  |  |  | 5 | inhibition [11]: 0.7%; inhibition [12]: 0.5%; RC10 [8]: inactive
Cn1c(=O)[nH]c2[nH]c(=O)n(C)c2c1=O |  |  |  | 14 | 14 | 
Cn1c(=O)c2[nH]c(=O)[nH]c2n(C)c1=O |  |  |  | 3.5 | 36 | 
Oc1nc(O)c2nc(O)[nH]c2n1 |  |  |  | 4.5 | 5 | inhibition [11]: 7%; inhibition [12]: 0.5%
Cn1c(=O)[nH]c(=O)c2[nH]c(O)nc21 |  |  |  | 3.5 | 11 | inhibition [11]: 10%
CCCCCCCCCCCCn1c(=O)cc(N)[nH]c1=O |  |  |  |  | 1 | 
Cc1c(C)c2c(c(C)c1O)CC[C@@](C)(CCC[C@H](C)CCC[C@H](C)CCCC(C)C)O2 | 190 |  |  | 6 | 46 | T inh [10]: inactive
Cc1c(C)c2c(c(C)c1O)CCC(C)(C(=O)O)O2 (centres undefined) [TROLOX] | 195 | 5000 | 15000 | 3.7 |  | 
CCCCCCCCCCCCCCCCNc1nc(O)nc(O)c1N | 150 | 900 | 2020 | 6.4 |  | 
Nc1[nH]c(=O)[nH]c(=O)c1N |  | 100000 |  | 7 |  | logP [5]: -1.92
Cn1c(=O)[nH]c(N)c(N)c1=O |  | 50000 |  | 6 |  | 
Cn1c(=O)[nH]c2c(=O)[nH]c(=O)[nH]c21 |  |  |  | 5 | 9 | 
Cn1c(O)nc2[nH]c(=O)[nH]c(=O)c21 |  |  |  | 20 | 20 | 

Second part, led by results:

T inh [4] [s] | IC50 [6] [nM] | SMILES | T inh [1] [s] | RC10 [3] [µM] | inhibition [7] [%] | other results
 | 670 | CCCCCCCCCCCCNc1c(N)n(Cc2ccccc2)c(=O)[nH]c1=O |  | 6.5 |  | 
114 | 620 | CCCCCCCCn1c(N)c(N)c(=O)[nH]c1=O | 3350 | 6.5 |  | logP [5]: 2.05
 | 1600 | CCCCCCCCCCCCn1c(O)nc2[nH]c(=O)[nH]c(=O)c21 |  | 27 |  | inhibition [11]: 10%; IC50 [13]: 200000 nM
114 | 280 | CCCCCCCCCCn1c(N)c(N)c(=O)[nH]c1=O | 3700 | 5.6 |  | logP [5]: 3.04
144 | 260 | CCCCCCCCCCCCn1c(=O)[nH]c(N)c(N)c1=O | 4200 | 5.5 |  | 
 | 850 | CCCCCCCCCCCCn1c(=O)n(C)c(=O)c2[nH]c(O)nc21 |  | 3 |  | inhibition [11]: 15%; IC50 [13]: 18000 nM
 | 28000 | CCCCCCCCn1c(=O)[nH]c(=O)c2[nH]c(O)nc21 |  | 6.5 |  | inhibition [11]: 15%; logP [5]: 1.1; IC50 [13]: 37000 nM
 | 1000 | CCCCCCCCCCCCn1c(O)nc2c(=O)[nH]c(=O)[nH]c21 |  | 6.2 |  | inhibition [11]: 13%; IC50 [13]: 11000 nM
 | 750 | CCCCCCCCCCCCCCCCn1c(O)nc2c(=O)[nH]c(=O)[nH]c21 |  | 4.5 |  | inhibition [11]: 10%; IC50 [13]: 8000 nM
126 | 240 | CCCCCCCCCCCCn1c(N)c(N)c(=O)n(C)c1=O | 3150 | 5 |  | 
 | 1600 | CCCCCCCCCCCCn1c(=O)[nH]c(=O)c2[nH]c(O)nc21 |  | 3.2 |  | logP [5]: 2.9
102 | 270 | CCCCCCCCCCCCn1c(N)c(N)c(=O)[nH]c1=O | 3350 | 7 |  | 
 | 1250 | CCCCCCCCCCCCn1c(=O)[nH]c2[nH]c(O)nc2c1=O |  | 5.2 |  | inhibition [11]: 25%; IC50 [13]: 10000 nM
114 | 22000 | CCCCCCCCCCCCCCCCCCNc1[nH]c(=O)n(C)c(=O)c1N | 1750 | 6.2 |  | 
 | 3700 | CCCCCCCCCCn1c(=O)[nH]c(=O)c2[nH]c(O)nc21 |  | 3.5 |  | inhibition [11]: 8%; logP [5]: 2.04; IC50 [13]: 22000 nM
105 | 300 | CCCCCCCCCCCCNc1nc(O)nc(O)c1N | 3500 | 6.4 |  | 
84 | 570 | CCCCCCCCCCCCNc1c(N)nc(O)nc1O | 6000 | 4.5 |  | 
